This experiment deals with primary human endothelial cells expressing luciferase under the control of the KLF2 promoter. In words: KLF2 Induction Cell Based Bioassay (luciferase reporter). As to conditions: for EC50: Homo sapiens, Endothelial cell; for Bioactivity Bucket, S: Bioactivity of stereoisomers: S isomer. Put shortly:
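Reporter cells dosed with 11-point 1:2 series (≤1% DMSO) for 24 h at 37 °C. Secreted Gaussia luciferase in supernatant read as luminescence after injection of 50 μM coelenterazine; signals normalized to DMSO and maximal reference-compound response, EC50 where curve crosses 0.5.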
In general terms: A reporter such as luciferase makes a cellular process visible.

Setting [1] is: 24 h, KLF2 promoter luciferase, 24 hours, 11-point concentration response, read-out: Activity Range (EC50).

Like-named read-outs stand apart in the source and are kept apart here.

For the compound `COc1cccnc1CNC(=O)[C@@]1(C)COc2c(oc3ccc(F)cc23)C(=O)N1Cc1cn(CCO)nn1` [Example 120, (R)-9-fluoro-4-((1-(2-hydroxyethyl)-1H-1,2,3-triazol-4-yl)methyl)-N-((3-methoxypyridin-2-yl)methyl)-3-methyl-5-oxo-2,3,4,5-tetrahydrobenzofuro[2,3-f][1,4]oxazepine-3-carboxamide], the EC50 under setting [1] fell in the range of 51 to 500 nM.

As to `COc1ccccc1CNC(=O)C1(C)COc2c(oc3cc(C(=O)NC4(C)COC4)cnc23)C(=O)N1CC(=O)N(C)C` (centres unmarked) [Example 121, 4-(2-(dimethylamino)-2-oxoethyl)-N3-(2-methoxybenzyl)-3-methyl-N8-(3-methyloxetan-3-yl)-5-oxo-2,3,4,5-tetrahydropyrido[2′,3′:4,5]furo[2,3-f][1,4]oxazepine-3,8-dicarboxamide], under setting [1], the EC50 is 51 to 500 nM.

Take `COCCN1C(=O)c2oc3cc(C(=O)NC4(C)COC4)cnc3c2OCC1(C)C(=O)NCc1ccccc1OC` (centres unmarked) [Example 122]: under setting [1], the EC50 was 51 to 500 nM.

Regarding `COCCN1C(=O)c2oc3cc(C(=O)NC4(C)COC4)cnc3c2OCC1(C)C(=O)NCc1c(Cl)cccc1OC` (centres unmarked) [Example 123], the EC50 under setting [1] was in the range of 51 to 500 nM.

For the compound `COc1cccc(F)c1CNC(=O)C1(C)COc2c(oc3cc(-c4ncco4)cnc23)C(=O)N1CC(=O)N(C)C` (centres unmarked) [Example 124, 4-(2-(dimethylamino)-2-oxoethyl)-N-(2-fluoro-6-methoxybenzyl)-3-methyl-8-(oxazol-2-yl)-5-oxo-2,3,4,5-tetrahydropyrido[2′,3′:4,5]furo[2,3-f][1,4]oxazepine-3-carboxamide], under setting [1], the EC50 lay within 51 to 500 nM.

As to `COc1cccnc1CNC(=O)[C@@]1(C)COc2c(oc3cc(-c4ncco4)ccc23)C(=O)N1CC(=O)N(C)C` [Example 125, (R)-4-(2-(dimethylamino)-2-oxoethyl)-N-((3-methoxypyridin-2-yl)methyl)-3-methyl-8-(oxazol-2-yl)-5-oxo-2,3,4,5-tetrahydrobenzofuro[2,3-f][1,4]oxazepine-3-carboxamide], under setting [1], the EC50 was at most 50 nM.

With `[2H]C([2H])([2H])N(C(=O)CN1C(=O)c2oc3cc(-c4nc(C(F)(F)F)cs4)ccc3c2OC[C@]1(C)C(=O)NCc1ncccc1OC)C([2H])([2H])[2H]` [Example 126], the EC50 under setting [1] was at most 50 nM.

Turning to `[2H]C([2H])([2H])N(C(=O)CN1C(=O)c2oc3cc(-c4ncco4)ccc3c2OC[C@]1(C)C(=O)NCc1ncccc1OC)C([2H])([2H])[2H]` [Example 127], the EC50 under setting [1] is at most 50 nM.

Regarding `COc1cccnc1CNC(=O)[C@@]1(C)COc2c(oc3cc(-c4nc(C(F)(F)F)cs4)ccc23)C(=O)N1CC(=O)N(C)C` [Example 128], the EC50 under setting [1] was at most 50 nM.

Regarding `COc1cccnc1CNC(=O)[C@@]1(C)COc2c(oc3cc(-c4nc(C#N)co4)ccc23)C(=O)N1CC(=O)N(C)C` [Example 129, (R)-8-(4-cyanooxazol-2-yl)-4-(2-(dimethylamino)-2-oxoethyl)-N-((3-methoxypyridin-2-yl)methyl)-3-methyl-5-oxo-2,3,4,5-tetrahydrobenzofuro[2,3-f][1,4]oxazepine-3-carboxamide], the EC50 runs as follows: under setting [1], at most 50 nM; (Bioactivity of stereoisomers: R isomer, read-out: Bioactivity Bucket, R) at most 50 nM.

For the compound `COc1cccc(F)c1CNC(=O)C1(C)COc2c(oc3ccc(C(F)(F)F)cc23)C(=O)N1CC(=O)N(C)C` (centres unmarked) [Example 131, 4-(2-(dimethylamino)-2-oxoethyl)-N-(2-fluoro-6-methoxybenzyl)-3-methyl-5-oxo-9-(trifluoromethyl)-2,3,4,5-tetrahydrobenzofuro[2,3-f][1,4]oxazepine-3-carboxamide], the EC50 under setting [1] was in the range of 51 to 500 nM.

As for `COc1cccc(F)c1CNC(=O)C1(C)COc2c(oc3ccc(C)cc23)C(=O)N1CC(=O)N(C)C` (centres unmarked) [Example 133, 4-(2-(dimethylamino)-2-oxoethyl)-N-(2-fluoro-6-methoxybenzyl)-3,9-dimethyl-5-oxo-2,3,4,5-tetrahydrobenzofuro[2,3-f][1,4]oxazepine-3-carboxamide], the EC50 under setting [1] fell in the range of 51 to 500 nM.

As for `COc1cccc(F)c1CNC(=O)[C@@]1(C)COc2c(oc3cc(C(F)(F)F)cnc23)C(=O)N1CC(=O)N(C)C` [Example 134, (R)-4-(2-(dimethylamino)-2-oxoethyl)-N-(2-fluoro-6-methoxybenzyl)-3-methyl-5-oxo-8-(trifluoromethyl)-2,3,4,5-tetrahydropyrido[2′,3′:4,5]furo[2,3-f][1,4]oxazepine-3-carboxamide], the EC50 under setting [1] was 51 to 500 nM.

In the case of `COCCN1C(=O)c2oc3cc(C(=O)NC4(C)COC4)ccc3c2OC[C@@]1(C)C(=O)NCc1c(F)cccc1OC` [Example 135], the “Bioactivity Bucket, S” value is “inactive”.

`COCCOCCn1cc(CCN2C(=O)c3oc4ccccc4c3OC[C@@]2(C)C(=O)NCc2ccccc2OC)nn1` [Example 136]: the “Bioactivity Bucket, S” value was “inactive”.

`C#CCCN1C(=O)c2oc3ccccc3c2OC[C@@]1(C)C(=O)NCc1ccccc1OC` [Example 138]: the “Bioactivity Bucket, S” value was “inactive”.

Values taken from US20250171460A1, “INDUCERS OF KLF2 AND METHODS OF USE THEREOF” (Riparian Pharmaceuticals, Inc., priority 2022, published 2025).
